This note sets out measurements from paper PMC11203657, “Glyphosate-Induced Phosphonatase Operons in Soil Bacteria of the Genus Achromobacter” (International Journal of Molecular Sciences, 2024).

Read-outs that look alike come from different tables or passages of the source.

One data set addresses T1, PhnX19-I (Achromobacter insolitus, UniProt Z9I4E4M620).
T1 construct: native, purified from wild-type strain, untagged; homodimer; MALDI match to OAD13647.1
T1 sequence (Z9I4E4M620 1-273): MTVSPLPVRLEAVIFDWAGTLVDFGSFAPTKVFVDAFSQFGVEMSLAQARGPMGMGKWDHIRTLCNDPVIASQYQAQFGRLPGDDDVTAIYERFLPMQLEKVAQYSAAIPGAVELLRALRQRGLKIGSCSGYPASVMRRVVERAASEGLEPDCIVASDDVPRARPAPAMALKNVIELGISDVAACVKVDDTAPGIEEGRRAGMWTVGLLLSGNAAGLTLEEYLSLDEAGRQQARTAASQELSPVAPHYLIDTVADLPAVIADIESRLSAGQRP
As to the kind of experiment: inhibition kinetics, ADH/NADH-coupled PAA hydrolysis, vector method. The conditions noted are these: substrate PAA 0.1-5 mM, pH 7.5, 10 mM MgCl2, 25 °C. It is filed as biochemical. From the text: inhibition kinetics, ADH/NADH-coupled PAA hydrolysis, vector method on PhnX19-I

For a further data set, the target named is T2, PhnX19-II (Achromobacter insolitus, UniProt Z9I4E4M620).
T2 construct: native, purified from wild-type strain, untagged; homodimer; MALDI match to OAD13647.1
T2 sequence (Z9I4E4M620 1-273): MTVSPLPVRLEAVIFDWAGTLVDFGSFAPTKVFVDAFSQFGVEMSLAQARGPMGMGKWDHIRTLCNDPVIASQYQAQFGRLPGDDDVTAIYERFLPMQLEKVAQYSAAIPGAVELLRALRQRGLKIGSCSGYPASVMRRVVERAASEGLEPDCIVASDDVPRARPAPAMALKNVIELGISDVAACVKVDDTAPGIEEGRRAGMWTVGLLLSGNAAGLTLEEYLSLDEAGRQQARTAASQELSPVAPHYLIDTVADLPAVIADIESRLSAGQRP
The data set is described as above. It is filed as biochemical. The following applies: substrate PAA 0.1-5 mM, pH 7.5, 10 mM MgCl2, 25 °C. From the text:
inhibition kinetics, ADH/NADH-coupled PAA hydrolysis, vector method on PhnX19-II

Data set [1] concerns the target T3, PhnX16 (Achromobacter aegrifaciens, UniProt A0ABU2D8D6).
T3 construct: gene phnX; native, purified from wild-type strain, untagged; subunit ~31 kDa, homodimer ~60-65 kDa
T3 sequence (A0ABU2D8D6 4-276): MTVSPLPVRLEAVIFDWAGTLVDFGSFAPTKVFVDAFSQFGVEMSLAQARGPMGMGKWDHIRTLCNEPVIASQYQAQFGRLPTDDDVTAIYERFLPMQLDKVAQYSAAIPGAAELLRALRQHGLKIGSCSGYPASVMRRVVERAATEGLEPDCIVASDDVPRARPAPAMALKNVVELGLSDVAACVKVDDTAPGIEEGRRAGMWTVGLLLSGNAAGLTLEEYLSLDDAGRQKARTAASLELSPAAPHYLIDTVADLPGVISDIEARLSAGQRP
As to the kind of experiment: activation kinetics, ADH/NADH-coupled PAA hydrolysis, vector method. The conditions noted are these: substrate PAA 0.1-5 mM, pH 7.5, 10 mM MgCl2, 25 °C; Ka is an activation constant; competitive-type activator. It is filed as biochemical. The text has this:
activation kinetics, ADH/NADH-coupled PAA hydrolysis, vector method on PhnX16

The target in data set [2] is T3, PhnX16. As to the kind of experiment: inhibition kinetics, ADH/NADH-coupled PAA hydrolysis, vector method. Type of data set: biochemical. The text has this:
inhibition kinetics, ADH/NADH-coupled PAA hydrolysis, vector method on PhnX16

Substrate in the data set “purified protein”: O=CCP(=O)(O)O
As to the kind of experiment: purified protein. Type of data set: biochemical, Achromobacter aegrifaciens. The conditions noted are these: pH 7.5, 50 mM Tris-HCl, 10 mM MgCl2, 0.1 mM DTT, 25 °C.

Setting [3] is: noncompetitive in table, uncompetitive in text, read-out: Effectors / 2,4-DNPA.
Where [4] appears, read: noncompetitive inhibitor, read-out: Effectors / BPA.
Where [5] appears, read: uncompetitive inhibitor, read-out: Effectors / GP.
[6] abbreviates: competitive inhibitor, read-out: Effectors / 2-AEP.

Consider `CC(=O)Oc1ccc([N+](=O)[O-])cc1[N+](=O)[O-]` [2,4-DNPA, 2,4-dinitrophenyl acetate], for which the Ki was found to be 730 µM on PhnX19-I (setting [3]) and 760 µM at PhnX19-II (setting [3]).
On to `NCP(=O)(O)O` [AMPA, aminomethylphosphonic acid], for which the “Ka (activation constant)” value on PhnX16 [1] came out at 43.5 mM.
With `CCCCP(=O)(O)O` [BPA, butylphosphonic acid], the results for the Ki on PhnX16 [2], on PhnX19-I (setting [4]) and at PhnX19-II (setting [4]) were 750 µM, 390 µM and 300 µM, respectively.
`O=C(O)CNCP(=O)(O)O` [GP, N-phosphonomethylglycine]: the Ki stood at 11600 µM on PhnX16 [2] (read-out: Effectors / GP), 4000 µM on PhnX19-I (setting [5]) and 5400 µM on PhnX19-II (setting [5]).
For the molecule `NCCP(=O)(O)O` [compound 1, 2-aminoethylphosphonic acid], the “Effectors / 2-AEP” value on PhnX16 [1] came to 21 mM. Further, the values for the Ki on PhnX19-I (setting [6]) and on PhnX19-II (setting [6]) were 2200 µM and 2480 µM, respectively.

B1: PhnX16 (Achromobacter aegrifaciens) (protein)
chain: MTVSPLPVRLEAVIFDWAGTLVDFGSFAPTKVFVDAFSQFGVEMSLAQARGPMGMGKWDHIRTLCNEPVIASQYQAQFGRLPTDDDVTAIYERFLPMQLDKVAQYSAAIPGAAELLRALRQHGLKIGSCSGYPASVMRRVVERAATEGLEPDCIVASDDVPRARPAPAMALKNVVELGLSDVAACVKVDDTAPGIEEGRRAGMWTVGLLLSGNAAGLTLEEYLSLDDAGRQKARTAASLELSPAAPHYLIDTVADLPGVISDIEARLSAGQRP
notes: native, purified from wild-type strain, untagged; subunit ~31 kDa, homodimer ~60-65 kDa
On to B1, for which, in the data set “purified protein”, the Michaelis constant (Km) came out at 889 ± 138 µM, the Vmax amounted to 1.2 µmol/min/mg, the kcat was found to be 0.6 ± 0.1 s⁻¹ and the kcat/Km worked out at 670 M⁻¹ s⁻¹.

B2: PhnX16R (Achromobacter aegrifaciens) (protein)
chain: MTVSPLPVRLEAVIFDWAGTLVDFGSFAPTKVFVDAFSQFGVEMSLAQARGPMGMGKWDHIRTLCNEPVIASQYQAQFGRLPTDDDVTAIYERFLPMQLDKVAQYSAAIPGAAELLRALRQHGLKIGSCSGYPASVMRRVVERAATEGLEPDCIVASDDVPRARPAPAMALKNVVELGLSDVAACVKVDDTAPGIEEGRRAGMWTVGLLLSGNAAGLTLEEYLSLDDAGRQKARTAASLELSPAAPHYLIDTVADLPGVISDIEARLSAGQRP
notes: recombinant full length, C-terminal His6 tag kept, pET-22b without pelB, E. coli BL21(DE3); homodimer
For the molecule B2, in the data set “purified protein”, the Km is 641 ± 23 µM, the Vmax is 1.12 µmol/min/mg, the kcat worked out at 0.56 ± 0.05 s⁻¹ and the kcat/Km stood at 875 M⁻¹ s⁻¹.
